Some test systems named below: A549 NSCLC; CAKI-1 renal; HCT-116 colon; HS 578T breast; IGROV1 ovarian; LOX IMVI melanoma; OVCAR-3 ovarian; OVCAR-4 ovarian.
Assay in all cases: inhibition of tumour cell growth, NCI panel, 48 h

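Briefly, cells in 96-well plates were exposed to five compound concentrations for 48 h, and endpoints were estimated by linear interpolation. Abbreviation: GI50, concentration required for 50% inhibition of growth. TGI: total growth inhibition.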

`CCN1CCN(c2nc(NNC(=O)c3cccc(OC)c3)nc(N3CCN(C(c4ccccc4)c4ccccc4)CC3)n2)CC1`: the GI50 in the assay on A549 NSCLC is 3.05 µM; with CAKI-1 renal it was 1540 nM; with HCT-116 colon it was 1610 nM; in the assay with HS 578T breast, 1.89 µM; with IGROV1 ovarian, 1890 nM; in the assay on LOX IMVI melanoma, 1620 nM. Also, the GI50 in the assay with OVCAR-3 ovarian is 1.94 µM; in the assay with OVCAR-4 ovarian, 2.06 µM. The TGI in the assay with A549 NSCLC was over 100 µM; with CAKI-1 renal it was 3.1 µM; in the assay with HCT-116 colon it was 3.22 µM; in the assay with HS 578T breast, 4.43 µM; in the assay on IGROV1 ovarian, 4.34 µM; in the assay on LOX IMVI melanoma, 2.97 µM. Also, the TGI in the assay with OVCAR-3 ovarian is 3.78 µM; with OVCAR-4 ovarian, 5.97 µM.

As for `C/C(=C\COc1ccc2ccc(=O)oc2c1)CCC(=O)C(C)(C)O`, the TGI was over 100 µM in the assay with A549 NSCLC; over 100 µM in the assay on CAKI-1 renal; 32.2 µM with HCT-116 colon; 78.2 µM in the assay with HS 578T breast; over 100 µM with IGROV1 ovarian; 32.8 µM in the assay with LOX IMVI melanoma. Moreover, the TGI in the assay with OVCAR-3 ovarian was 46.4 µM; with OVCAR-4 ovarian, over 100 µM.

In the case of `COc1ccc2c(c1)/C(=N/OC(C)=O)c1c-2c(Nc2ccc(/C(C)=N/OC(C)=O)cc2)nc2ccccc12`, the GI50 with A549 NSCLC was 59.6 µM; in the assay on CAKI-1 renal it was 31800 nM; with HCT-116 colon it was 35000 nM; with HS 578T breast, 66 µM; in the assay with IGROV1 ovarian it was 71600 nM; with LOX IMVI melanoma, 29100 nM. Besides, the GI50 was 30.1 µM in the assay on OVCAR-3 ovarian and 20.8 µM with OVCAR-4 ovarian. Moreover, the TGI is over 100 µM in the assay with A549 NSCLC; 98.2 µM with CAKI-1 renal; over 100 µM with HCT-116 colon; over 100 µM in the assay on HS 578T breast; over 100 µM in the assay with IGROV1 ovarian; 63.5 µM in the assay on LOX IMVI melanoma. Besides, the TGI was 87.4 µM in the assay with OVCAR-3 ovarian and 45.1 µM with OVCAR-4 ovarian.

For the molecule `Cn1cc(C2=C(c3cccc(Cl)c3)C(=O)NC2=O)c2ccccc21`, the GI50 in the assay on A549 NSCLC was over 25 µM; in the assay with CAKI-1 renal it was over 17000 nM; in the assay with HCT-116 colon it was over 25000 nM; in the assay on HS 578T breast, 7.28 µM; in the assay with IGROV1 ovarian, 12300 nM; in the assay on LOX IMVI melanoma it was over 25000 nM. Also, the GI50 in the assay on OVCAR-3 ovarian is over 25 µM; with OVCAR-4 ovarian, over 22.6 µM. Further, the TGI in the assay on A549 NSCLC, with CAKI-1 renal, in the assay on HCT-116 colon, in the assay with HS 578T breast, in the assay on IGROV1 ovarian and with LOX IMVI melanoma was over 25 µM in each case. Moreover, the TGI in the assay with OVCAR-3 ovarian and with OVCAR-4 ovarian was over 25 µM each time.

Regarding `O=C1c2ccccc2-c2c1c1ccccc1c(=O)n2CCCNCCO`, the GI50 was 0.267 µM in the assay on A549 NSCLC; 438 nM with CAKI-1 renal; 298 nM in the assay with HCT-116 colon; 0.589 µM in the assay on HS 578T breast; 501 nM in the assay with IGROV1 ovarian; 206 nM in the assay with LOX IMVI melanoma. The GI50 was 1.07 µM with OVCAR-3 ovarian and 1.24 µM in the assay with OVCAR-4 ovarian. Further, the TGI in the assay on A549 NSCLC was 12.8 µM; with CAKI-1 renal, 3.34 µM; with HCT-116 colon, 3.53 µM; in the assay with HS 578T breast, 5.04 µM; with IGROV1 ovarian, 3.76 µM; in the assay with LOX IMVI melanoma it was 2.79 µM. Moreover, the figures for the TGI in the assay with OVCAR-3 ovarian and in the assay with OVCAR-4 ovarian were 6.13 µM and 5.95 µM, respectively.

With `Cc1c(-c2ccnc(N)n2)c2c(n1-c1ccccc1)C(=O)c1ccccc1C2=O`, the GI50 was 36.1 µM with A549 NSCLC; 17000 nM with CAKI-1 renal; 14300 nM in the assay on HCT-116 colon; 22.4 µM with HS 578T breast; 4860 nM in the assay on IGROV1 ovarian; 10600 nM with LOX IMVI melanoma. The GI50 in the assay on OVCAR-3 ovarian is 12.3 µM; in the assay on OVCAR-4 ovarian, 58.3 µM. The TGI was over 100 µM in the assay on A549 NSCLC; 62.6 µM in the assay with CAKI-1 renal; over 100 µM in the assay on HCT-116 colon; 60.8 µM with HS 578T breast; 39 µM in the assay with IGROV1 ovarian; 24.2 µM in the assay on LOX IMVI melanoma. Moreover, the TGI in the assay with OVCAR-3 ovarian was 30.6 µM; in the assay on OVCAR-4 ovarian it was over 100 µM.

Take `CN1CCN(Cc2ccc(NC(=O)c3cncc(C#Cc4cncc5[nH]ncc45)c3)cc2C(F)(F)F)CC1`: the GI50 in the assay with A549 NSCLC is 1.67 µM; with CAKI-1 renal it was 790 nM; in the assay with HCT-116 colon, 215 nM; in the assay on HS 578T breast, 0.523 µM; in the assay on IGROV1 ovarian, 454 nM; in the assay on LOX IMVI melanoma it was 171 nM. In addition, the GI50 in the assay with OVCAR-3 ovarian was 1.46 µM; in the assay with OVCAR-4 ovarian, 0.171 µM. Besides, the TGI turned out to be 6.79 µM with A549 NSCLC; 2.6 µM in the assay on CAKI-1 renal; 2.34 µM in the assay on HCT-116 colon; 2.45 µM with HS 578T breast; 1.45 µM in the assay with IGROV1 ovarian; 0.689 µM with LOX IMVI melanoma. The TGI was found to be 6.39 µM with OVCAR-3 ovarian and 5.34 µM in the assay with OVCAR-4 ovarian.

Consider `CCN(CC)CCn1nc2c3c(cccc3c1=O)-c1ccccc1-2`, for which the GI50 with A549 NSCLC was 1.05 µM; in the assay on CAKI-1 renal, 1390 nM; in the assay with HCT-116 colon, 1780 nM; in the assay with HS 578T breast it was 11.2 µM; with IGROV1 ovarian, 2060 nM; with LOX IMVI melanoma, 1310 nM. Besides, the GI50 is 3.78 µM in the assay on OVCAR-3 ovarian and 3.33 µM in the assay on OVCAR-4 ovarian. Besides, the TGI in the assay on A549 NSCLC was 19.8 µM; with CAKI-1 renal, over 50 µM; in the assay with HCT-116 colon it was over 50 µM; in the assay on HS 578T breast it was over 50 µM; in the assay on IGROV1 ovarian, over 50 µM; in the assay with LOX IMVI melanoma, 4.74 µM. For the same molecule, the TGI amounted to 45.2 µM in the assay with OVCAR-3 ovarian and 26 µM in the assay on OVCAR-4 ovarian.

Turning to `C=C(C)[C@@H]1CC[C@@H]2C(=CC[C@]3(C)C([C@H](C)CC/C=C(/C)C(=O)O)CC[C@@]23C)[C@@]1(C)CCC(=O)O` (stereo partly specified), the TGI is over 100 µM in the assay on A549 NSCLC; 68.4 µM with CAKI-1 renal; 43.7 µM with HCT-116 colon; over 100 µM in the assay with HS 578T breast; 88.8 µM in the assay on IGROV1 ovarian; 37.8 µM in the assay on LOX IMVI melanoma. Also, the TGI was 44.6 µM with OVCAR-3 ovarian and over 100 µM with OVCAR-4 ovarian.

Consider `NS(=O)(=O)c1ccc(N=Nc2cc3ccccc3c(C(=O)O)c2O)cc1`, for which the TGI in the assay with A549 NSCLC, in the assay with CAKI-1 renal, in the assay on HCT-116 colon, in the assay on HS 578T breast, in the assay on IGROV1 ovarian and in the assay on LOX IMVI melanoma was over 100 µM throughout. Besides, the TGI is over 87.6 µM in the assay with OVCAR-3 ovarian and over 80.9 µM in the assay with OVCAR-4 ovarian.
